Measurements published in patent US4537777A, “A52688 Antibiotics and process for their production” (priority 1983, dated 1985).
Read-outs that look alike come from different tables or passages of the source.

Columns and labels:
Mycobacterium avium = experiment: standard disc-plate assay; format: cell-based; details: read-out: Zone Diameters
Candida albicans = experiment: standard disc-plate assay; format: cell-based; details: read-out: Zone Diameters
Micrococcus luteus = experiment: standard disc-plate assay; format: cell-based; details: read-out: Zone Diameters
Adenocarcinoma 755 = experiment: murine-transplanted tumor adenocarcinoma 755 in mice; format: in vivo; details: daily for 10 days
Procedure: A52688 factors A, C, D, E, F, G, H, J and K and the specified acyl esters of factors A, C, D, E, G, H, J and K are especially useful as oncolytic agents.
Table X summarizes the results of experiments in which mice bearing the murine-transplanted tumor adenocarcinoma 755 were treated with compounds of this invention. In each test the compound was administered by the intraperitoneal route at specified dose levels. The compound was administered over a ten-day period, either on a daily basis or on days one, five and nine, as indicated.

Serratia marcescens = experiment: standard disc-plate assay; format: cell-based; details: read-out: Zone Diameters
Staphylococcus aureus = experiment: standard disc-plate assay; format: cell-based; details: read-out: Zone Diameters
Salmonella gallinarium = experiment: standard disc-plate assay; format: cell-based; details: read-out: Zone Diameters
Pseudomonas solanacearum = experiment: microbe, parasite or virus in culture; format: cell-based; details: Ralstonia solanacearum, read-out: Zone Diameters
[1] = test system: Saccharomyces pastorianus; experiment: standard disc-plate assay; format: cell-based; details: read-out: Zone Diameters
acute toxicity in mice = details: mouse, in vivo, ip, intraperitoneal, formulated in aqueous PVP, read-out: Intraperitoneal LD50
From the text: ^a Compounds formulated in aqueous PVP
^b Route test compound administered

[2] = test system: Trichophyton mentagroprophytes; experiment: standard disc-plate assay; format: cell-based; details: read-out: Zone Diameters
Proteus vulgaris = experiment: standard disc-plate assay; format: cell-based; details: read-out: Zone Diameters
Bacillus subtilis = experiment: standard disc-plate assay; format: cell-based; details: read-out: Zone Diameters
[3] = test system: Bacillus stereothermophilus; experiment: standard disc-plate assay; format: cell-based; details: read-out: Zone Diameters
Neurospora crassa = experiment: standard disc-plate assay; format: cell-based; details: read-out: Zone Diameters
Escherichia coli = experiment: standard disc-plate assay; format: cell-based
Procedure: In Table IX the standard discplate-assay activity of the A52688 factors is summarized. Activity is measured as the diameter (in mm) of the observed zone of inhibition; the diameter of the disc used in each case was 6.35 mm.

Pseudomonas aeruginosa = experiment: standard disc-plate assay; format: cell-based; details: read-out: Zone Diameters
[4] = read-out: Zone Diameters, conc 0.1 mg/ml, disc 6.35 mm
[5] = read-out: Zone Diameters, in minimal medium, conc 0.1 mg/ml, disc 6.35 mm
[6] = conc 0.1 mg/ml, disc 6.35 mm, ^b overgrowth: factor F
[7] = conc 0.1 mg/ml, disc 6.35 mm, ^b overgrowth: factor C
[8] = conc 0.1 mg/ml, disc 6.35 mm, ^b overgrowth: factor B
[9] = conc 0.1 mg/ml, disc 6.35 mm, ^b overgrowth: factors B, C, F
[10] = conc 0.1 mg/ml, disc 6.35 mm, ^b overgrowth: factors A, C, E, F, G
[11] = conc 0.1 mg/ml, disc 6.35 mm, read-out: Zone Diameters
[12] = in minimal medium, conc 0.1 mg/ml, disc 6.35 mm, read-out: Zone Diameters

Compound | zone of inhibition at 100 µg/mL (Mycobacterium avium) | zone of inhibition at 100 µg/mL (Candida albicans) | zone of inhibition at 100 µg/mL (Micrococcus luteus) | zone of inhibition at 100 µg/mL (Serratia marcescens) | zone of inhibition at 100 µg/mL (Staphylococcus aureus) | zone of inhibition at 100 µg/mL (Salmonella gallinarium) | zone of inhibition at 100 µg/mL (Pseudomonas solanacearum; conc 0.1 mg/ml) | zone of inhibition at 100 µg/mL [1] | LD50 (acute toxicity in mice) | zone of inhibition at 100 µg/mL [2] | zone of inhibition at 100 µg/mL (Proteus vulgaris) | zone of inhibition at 100 µg/mL (Bacillus subtilis) | zone of inhibition at 100 µg/mL [3] | zone of inhibition at 100 µg/mL (Neurospora crassa) | zone of inhibition at 100 µg/mL (Escherichia coli; [4]) | zone of inhibition at 100 µg/mL (Escherichia coli; [5]) | zone of inhibition at 100 µg/mL (Mycobacterium avium; [6]) | zone of inhibition at 100 µg/mL (Candida albicans; conc 0.1 mg/ml, disc 6.35 mm) | zone of inhibition at 100 µg/mL (Micrococcus luteus; conc 0.1 mg/ml, disc 6.35 mm) | zone of inhibition at 100 µg/mL (Serratia marcescens; [7]) | also measured
[C-]#[N+]C(=CC1=C[C@@H](O)[C@H](O)CC1)C(=CC1CCC(O)CC1)[N+]#[C-] (relative stereo) [Factor C] | 18 mm | 16 mm | 33 mm | 15 mm | 16 mm | 38 mm | 20 mm | 15 mm | < 2.34 mg/kg | 15 mm | 26 mm | 23 mm | 35 mm | 22 mm | 24 mm | 20 mm | – | – | – | – | Percent Tumor Inhibition (Adenocarcinoma 755; 0.125 mg/kg i.p.): 60%; Toxic Deaths (Adenocarcinoma 755; 0.125 mg/kg i.p., of 10 mice tested): 0; Percent Tumor Inhibition (Adenocarcinoma 755; 0.25 mg/kg i.p.): 47%; Toxic Deaths (Adenocarcinoma 755; 0.25 mg/kg i.p., of 10 mice tested (9 for factor E)): 0; Percent Tumor Inhibition (Adenocarcinoma 755; 0.50 mg/kg i.p.): 72%; Toxic Deaths (Adenocarcinoma 755; 0.50 mg/kg i.p., of 10 mice tested (8 for factor E)): 5
[C-]#[N+]C(=CC1=C[C@@H](OC)[C@@H](O)CC1)C(=CC1CCC(OC(=O)C=C(C)C)CC1)[N+]#[C-] (relative stereo) [Factor J] | 14 mm | 22 mm | 29 mm | 12 mm | 23 mm | 17 mm | 21 mm | 19 mm | – | 37 mm | 22 mm | 19 mm | 25 mm | 36 mm | 15 mm | 13 mm | – | – | – | – | zone of inhibition at 100 µg/mL (Pseudomonas aeruginosa): 12 mm
[C-]#[N+]C(=Cc1ccc(O)cc1)C(=CC1CCC(OC(=O)C=C(C)C)CC1)[N+]#[C-] (centres unmarked) [Factor D] | – | – | – | – | – | – | – | – | 0.992 mg/kg | – | – | – | – | – | – | – | 13 mm | 19 mm | 26 mm | 12 mm | zone of inhibition at 100 µg/mL (Staphylococcus aureus; [8]): 18 mm; zone of inhibition at 100 µg/mL (Salmonella gallinarium; conc 0.1 mg/ml, disc 6.35 mm): 14 mm; zone of inhibition at 100 µg/mL (Pseudomonas solanacearum): 17 mm; zone of inhibition at 100 µg/mL [1, 9]: 13 mm; zone of inhibition at 100 µg/mL ([2]; conc 0.1 mg/ml, disc 6.35 mm): 21 mm; zone of inhibition at 100 µg/mL (Proteus vulgaris; [10]): 12 mm; zone of inhibition at 100 µg/mL (Bacillus subtilis; conc 0.1 mg/ml, disc 6.35 mm): 18 mm; zone of inhibition at 100 µg/mL ([3]; conc 0.1 mg/ml, disc 6.35 mm): 21 mm; zone of inhibition at 100 µg/mL (Pseudomonas aeruginosa; conc 0.1 mg/ml, disc 6.35 mm): 13 mm; zone of inhibition at 100 µg/mL (Neurospora crassa; conc 0.1 mg/ml, disc 6.35 mm): 22 mm; zone of inhibition at 100 µg/mL (Escherichia coli; [11]): 15 mm; zone of inhibition at 100 µg/mL (Escherichia coli; [12]): 11 mm
[C-]#[N+]C(=CC1=C[C@@H](OC(C)=O)[C@H](O)CC1)C(=CC1CCC(OC(=O)C=C(C)C)CC1)[N+]#[C-] (relative stereo) [Factor H] | – | – | – | – | – | – | – | – | – | – | – | – | – | – | – | – | 10 mm | 18 mm | 27 mm | 10 mm | zone of inhibition at 100 µg/mL (Staphylococcus aureus; [8]): 20 mm; zone of inhibition at 100 µg/mL (Salmonella gallinarium; conc 0.1 mg/ml, disc 6.35 mm): 16 mm; zone of inhibition at 100 µg/mL (Pseudomonas solanacearum): 18 mm; zone of inhibition at 100 µg/mL [1, 9]: 16 mm; zone of inhibition at 100 µg/mL ([2]; conc 0.1 mg/ml, disc 6.35 mm): 35 mm; zone of inhibition at 100 µg/mL (Proteus vulgaris; [10]): 17 mm; zone of inhibition at 100 µg/mL (Bacillus subtilis; conc 0.1 mg/ml, disc 6.35 mm): 16 mm; zone of inhibition at 100 µg/mL ([3]; conc 0.1 mg/ml, disc 6.35 mm): 24 mm; zone of inhibition at 100 µg/mL (Pseudomonas aeruginosa; conc 0.1 mg/ml, disc 6.35 mm): 11 mm; zone of inhibition at 100 µg/mL (Neurospora crassa; conc 0.1 mg/ml, disc 6.35 mm): 33 mm; zone of inhibition at 100 µg/mL (Escherichia coli; [11]): 15 mm; zone of inhibition at 100 µg/mL (Escherichia coli; [12]): 10 mm
